This is an account of results in PMC12837263, “β,β-Dimethylacrylalkannin Restores Colistin Efficacy Against mcr- and TCS-Mediated Resistant Gram-Negative Bacteria via Membrane Disturbance” (Antibiotics, 2025).

pIC50, pKd: −log10 of the molar value.

One series concerns sheep blood cells. The series is described as follows: Hemolytic activity. The conditions noted are these: Ovis aries, Erythrocyte; sheep erythrocytes, 1 h; selection criterion; read-out: IC50 hemolysis. It is filed as cell-based. The method, then: (§1) Toxicity assessment was performed by using sheep blood cells, human renal proximal tubular epithelial HK-2, and human hepatocarcinoma HepG2. Briefly, 8% erythrocyte suspensions were incubated with the test compounds (0–250 µM) for 1 h at 37 °C. After centrifugation, supernatants were transferred to a 96-well plate, and absorbance was measured at 570 nm.
(§2) The HepG2 and HK-2 cells (10^4 cells/well) were cultured in DMEM medium containing 10% fetal bovine serum (FBS) and then placed in a 5% CO2 incubator for 24 h. The culture medium was replaced with fresh DMEM medium containing the compounds (0–250 µM), followed by a further 24 h incubation. Subsequently, 10 µL of CCK-8 was added and incubated for 1 h, and OD450nm values were measured.Hemolysis% = [OD570nm(drug) − OD570nm(blank)]/[OD570nm(TritonX−100) − OD570nm(blank)] × 100%Cell viability% = [OD450nm(drug) − OD450nm(blank)]/[OD450nm(negative) − OD450nm(blank)] × 100%

Series [1] can be described thus: Isothermal titration calorimetry (ITC). In kind it is binding. The conditions noted are these: 25 °C, β,β-Dim vs CL. The method, then: An isothermal titration calorimetry (ITC) assay was used to assess the affinity between β,β-Dim and PE, PG, and CL using NANO ITC (TA, New Castle, DE, USA). β,β-Dim (0.01 mM) was loaded into the sample cell and titrated with 20 injections of 2 μL membrane components (0.2 mM) at 120 s intervals. The assay was performed at 25 °C with a stirring rate of 350 rpm. Data were analyzed using the independent binding model to calculate the dissociation constant (KD), stoichiometric ratio (n), enthalpy change (ΔH), and entropy change (ΔS).
(In general: ITC needs no label: the signal is the heat of the interaction.)

A short description of another series: Cytotoxicity (CCK-8). In kind it is cell-based. Particulars: human, HK-2 cells and HepG2 cells; HK-2 and HepG2, 24 h; selection criterion. The method, then:
as §1, §2

What is called pIC50 is the IC50 on a negative log10 scale, so that one unit is a factor of ten. The term pKd denotes −log10 of the Kd, conventionally taken in molar units. Higher therefore signals a small Kd. Usually IC50 stands for the concentration at which inhibition is half-maximal. Lower therefore signals greater potency. In the case of `CC(C)=CC[C@H](OC(=O)C=C(C)C)C1=CC(=O)c2c(O)ccc(O)c2C1=O` [β,β-Dim, β,β-dimethylacrylalkannin], the pIC50 in the series on sheep blood cells was under 5.00. The compound further gave a pKd in series [1] of 4.91. This compound also returned an IC50 at 24 h in the series “Cytotoxicity (CCK-8)” of over 10 µM.
